# According to the supplement of paper PMC10307832:
# What was measured:
# Assay in all cases: relative viability (nuclei count vs DMSO), 5 days (fraction); higher = more cells survive
# [1] = compound: C1/C(=C\C2=CC=CS2)/C(=O)/C(=C/C3=CC=CS3)/C1 + CS(=O)(=O)N1CCN(Cc2cc3nc(-c4cccc5[nH]ncc45)nc(N4CCOCC4)c3s2)CC1 [Pictilisib] (partner 1 µM)
# Procedure, shortened: (§1)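 Medians of duplicate plates are given as relative viability. That measure is the nuclei count in treated wells divided by the count in vehicle wells. Counts were taken on 4× images of lung cancer cell lines in 1536-well plates, 5 days after pin-tool dosing the day after seeding with one drug alone or a fixed anchor-drug dose plus five library-drug doses (not always all listed) in √10 steps.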
# [2] = compound: C1/C(=C\C2=CC=CS2)/C(=O)/C(=C/C3=CC=CS3)/C1 + Nc1ncn([C@H]2C[C@H](O)[C@@H](CO)O2)c(=O)n1 [Decitabine] (partner 2 µM)
# Procedure, shortened: as §1
# [3] = compound: C1=CC(=CC=C1C2=CC(=C(S2)NC(=O)N)C(=O)N)F [TPCA-1] + CS(=O)(=O)N1CCN(Cc2cc3nc(-c4cccc5[nH]ncc45)nc(N4CCOCC4)c3s2)CC1 [Pictilisib] (partner 1 µM)
# Procedure, shortened: as §1
# [4] = compound: C[C@]12O[C@H](C[C@]1(O)CO)n1c3ccccc3c3c4c(c5c6ccccc6n2c5c31)CNC4=O [Lestaurtinib] + CS(=O)(=O)N1CCN(Cc2cc3nc(-c4cccc5[nH]ncc45)nc(N4CCOCC4)c3s2)CC1 [Pictilisib] (partner 1 µM)
# Procedure, shortened: as §1
Cell Line,relative viability ([1]; first compound 0.2 µM),relative viability ([1]; first compound 0.6325 µM),relative viability ([1]; first compound 2 µM),relative viability ([1]; first compound 6.325 µM),relative viability ([1]; first compound 20 µM),relative viability ([2]; first compound 0.2 µM),relative viability ([2]; first compound 0.6325 µM),relative viability ([2]; first compound 2 µM),relative viability ([2]; first compound 6.325 µM),relative viability ([2]; first compound 20 µM),relative viability ([3]; first compound 0.04 µM),relative viability ([3]; first compound 0.1265 µM),relative viability ([3]; first compound 0.4 µM),relative viability ([3]; first compound 1.265 µM),relative viability ([3]; first compound 4 µM),relative viability ([4]; first compound 0.005 µM),relative viability ([4]; first compound 0.01581 µM),relative viability ([4]; first compound 0.05 µM),relative viability ([4]; first compound 0.1581 µM),relative viability ([4]; first compound 0.5 µM)
EMC-BAC-2,0.61,0.548,0.545,0.48,0.505,1,0.968,1.03,0.909,0.924,0.59,0.475,0.55,0.318,0.406,0.58,0.504,0.427,0.32,0.239
NCI-H520,0.284,0.369,0.303,0.277,0.311,0.597,0.518,0.548,,0.492,0.351,0.242,0.307,0.319,0.319,0.279,0.319,0.211,0.228,0.18
NCI-H1755,0.475,0.436,0.435,0.353,0.386,0.74,0.706,0.743,0.676,0.706,0.406,0.344,0.426,0.209,0.204,0.444,0.492,0.211,0.269,0.175
NCI-H1993,0.877,0.793,0.851,0.684,0.79,0.557,0.558,0.675,0.499,0.432,0.883,,0.939,0.911,0.723,0.802,0.724,0.69,0.716,0.663
NCI-H23,0.557,0.495,0.535,0.551,0.542,0.32,0.293,0.314,0.34,0.285,0.529,0.342,0.519,0.5,0.184,0.5,0.468,0.353,0.375,0.204
NCI-H1437,0.437,0.402,0.406,0.404,0.36,0.547,0.521,0.508,0.518,0.612,0.508,0.439,0.423,0.538,0.29,0.466,0.491,0.375,0.245,0.14
SK-MES-1,0.282,0.355,0.391,0.268,0.382,0.408,0.424,0.409,0.335,0.348,0.403,0.316,0.305,0.255,0.276,0.322,0.312,0.259,0.262,0.177
NCI-H2405,0.491,0.386,0.572,0.452,0.416,0.798,0.722,0.822,0.719,0.704,0.487,0.353,0.493,,0.364,0.417,0.404,0.356,0.345,0.202
NCI-H2023,0.282,0.254,0.241,0.214,0.23,0.247,0.234,0.228,0.21,0.236,0.264,0.177,0.237,0.176,0.115,0.255,0.27,0.167,0.155,0.0782
NCI-H838,0.456,0.511,0.416,0.413,0.436,0.42,0.473,0.468,0.448,0.449,0.547,0.429,0.452,0.325,0.387,0.492,0.479,0.378,0.309,0.169
NCI-H661,0.398,0.524,0.525,0.373,0.398,0.605,0.567,0.56,0.475,0.496,0.467,0.325,0.452,0.347,0.321,0.35,0.461,0.411,0.352,0.336
NCI-H1734,0.466,0.447,0.487,0.44,0.501,0.582,0.427,0.523,0.403,0.486,0.53,0.353,0.447,0.518,0.264,0.444,0.399,0.316,0.251,0.196
NCI-H1650,0.618,0.584,0.672,0.567,0.598,0.484,0.374,0.442,0.499,0.354,0.7,0.537,0.592,0.423,0.422,0.594,0.662,0.566,0.463,0.153
NCI-H596,0.412,0.419,0.378,0.368,0.391,1.04,1.13,0.992,1.05,1.02,0.402,0.353,0.196,0.388,0.387,0.375,0.378,0.375,0.31,0.293
NCI-H1944,0.35,0.333,0.357,0.162,0.341,0.423,0.427,0.439,,0.392,0.384,0.326,0.343,0.312,0.258,0.352,0.313,0.313,0.305,0.248
LK-2,0.521,0.635,0.487,0.491,0.561,0.341,0.31,0.358,0.33,0.347,0.721,0.349,0.615,0.662,0.442,0.57,0.648,0.481,0.433,0.28
